Molecules are shown by their SMILES.

A word on the melting point: it is the temperature, or range, at which the solid turns liquid. The compound `COC(=O)c1ccc(OC)c(NC(=O)c2nnn(Cc3ccc(Cl)c(Cl)c3)c2C)c1` [Example 25, Methyl 3-[({1-[(3,4-dichlorophenyl)methyl]-5-methyl-1H-1,2,3-triazol-4-yl}carbonyl)amino]-4-(methyloxy)benzoate] came in with a melting point of 203 °C.

As to `Cc1c(C(=O)Nc2cccc(CCO)c2)nnn1Cc1ccc(Cl)c(Cl)c1` [Example 62, 1-[(3,4-Dichlorophenyl)methyl]-N-[3-(2-hydroxyethyl)phenyl]-5-methyl-1H-1,2,3-triazole-4-carboxamide], the melting point is 142 °C.

`Cc1c(C(=O)Nc2ccc(O)c(CO)c2)nnn1Cc1ccc(Cl)c(Cl)c1` [Example 26, 1-[(3 4 Dichlorophenyl)methyl]-N-[4-hydroxy-3-(hydroxymethyl)phenyl]-5-methyl-1H-1,2,3-triazole-4-carboxamide] came in with a melting point of 175.6 °C.

In turn, `CCOC(=O)Cc1ccc(NC(=O)c2nnn(Cc3ccc(Cl)c(Cl)c3)c2C)cc1` [Example 27, Ethyl {4-[({1-[(3,4-dichlorophenyl)methyl]-5-methyl-1H-1,2,3-triazol-4-yl}carbonyl)amino]phenyl}acetate] returned a melting point of 139 °C.

For the compound `Cc1c(C(=O)Nc2ccc(OCCC(C)C)cc2)nnn1Cc1ccc(C(C)C)cc1`, the melting point is 114 °C (dec.).

As to `Cc1c(C(=O)Nc2cc(CO)cc(CO)c2)nnn1Cc1cccc(F)c1` [Example 84, N-[3,5-bis(Hydroxymethyl)phenyl]-1-[(3-fluorophenyl)methyl]-5-methyl-1H-1,2,3-triazole-4-carboxamide], the melting point turned out to be 173.1 °C.

With `Cc1c(C(=O)Nc2ccc(Cl)c(CO)c2)nnn1Cc1ccc(Cl)c(Cl)c1` [Example 45, N-[4-Chloro-3-(hydroxymethyl)phenyl]-1-[(3,4-dichlorophenyl)methyl]-5-methyl-1H-1,2,3-triazole-4-carboxamide], the melting point turned out to be 190.3 °C.

As to `Cc1c(C(=O)Nc2cccc(OCCO)c2)nnn1Cc1ccc(Cl)c(Cl)c1` [Example 78, 1-[(3,4-Dichlorophenyl)methyl]-N-{3-[(2-hydroxyethyl)oxy]phenyl}-5-methyl-1H-1,2,3-triazole-4-carboxamide], the melting point was found to be 144.9 °C.

For the compound `Cc1c(C(=O)Nc2cccc(C(=O)NCCO)c2)nnn1Cc1ccc(Cl)c(Cl)c1` [Example 68, 1-[(3,4-Dichlorophenyl)methyl]-N-(3-{[(2-hydroxyethyl)amino]carbonyl}phenyl)-5-methyl-1H-1,2,3-triazole-4-carboxamide], the melting point was determined as 190.7 °C.

As for `Cc1c(C(=O)Nc2ccc(CO)c(CO)c2)nnn1Cc1ccc(F)cc1` [Example 83, N-[3,4-bis(Hydroxymethyl)phenyl]-1-[(4-fluorophenyl)methyl]-5-methyl-1H-1,2,3-triazole-4-carboxamide], the melting point was found to be 175.5 °C.

`COc1ccc(NC(=O)c2nnn(Cc3ccc(Br)cc3)c2C)cc1OC` registered a melting point of 173 °C.

As for `COc1ccc(C(N)=O)cc1NC(=O)c1nnn(Cc2ccc(Cl)c(Cl)c2)c1C` [Example 33, N-[5-(Aminocarbonyl)-2-(methyloxy)phenyl]-1-[(3,4-dichlorophenyl)methyl]-5-methyl-1H-1,2,3-triazole-4-carboxamide], the melting point came to 218.2 °C.

In turn, `Cc1c(C(=O)Nc2ccc(OCc3ccccc3)cc2)nnn1Cc1ccc(F)cc1` [Example 4, 1-[(4-Fluorophenyl)methyl]-5-methyl-N-{4-[(phenylmethyl)oxy]phenyl}-1H-1,2,3-triazole-4-carboxamide] came in with a melting point of 139.4 °C.

Regarding `CNC(=O)c1cc(CO)cc(NC(=O)c2nnn(Cc3ccc(Cl)c(Cl)c3)c2C)c1` [Example 92, 1-[(3,4-Dichlorophenyl)methyl]-N-{3-(hydroxymethyl)-5-[(methylamino)carbonyl]phenyl}-5-methyl-1H-1,2,3-triazole-4-carboxamide], the melting point is 223 to 225 °C.

`Cc1c(C(=O)Nc2ccc(CO)c(CO)c2)nnn1Cc1ccc(Cl)c(Cl)c1` [Example 58, N-[3,4-bis(Hydroxymethyl)phenyl]-1-[(3,4-dichlorophenyl)methyl]-5-methyl-1H-1,2,3-triazole-4-carboxamide] returned a melting point of 203 °C.

In turn, `Cc1c(C(=O)Nc2cc(CO)cc(CO)c2)nnn1Cc1ccccc1` [Example 60, N-[3,5-bis(Hydroxymethyl)phenyl]-5-methyl-1-(phenylmethyl)-1H-1,2,3-triazole-4-carboxamide] registered a melting point of 148.2 °C.

In the case of `COc1cc(CO)ccc1NC(=O)c1nnn(Cc2ccc(Cl)c(Cl)c2)c1C` [Example 49, 1-[(3,4-Dichlorophenyl)methyl]-N-[4-(hydroxymethyl)-2-(methyloxy)phenyl]-5-methyl-1H-1,2,3-triazole-4-carboxamide], the melting point was 136 °C.

`COC(=O)c1cc(NC(=O)c2nnn(Cc3ccc(Cl)c(Cl)c3)c2C)ccc1F` [Example 32, Methyl 5-[({1-[(3,4-dichlorophenyl)methyl]-5-methyl-1H-1,2,3-triazol-4-yl}carbonyl)amino]-2-fluorobenzoate] showed a melting point of 169.8 °C.

The compound `Cc1c(C(=O)Nc2ccc(OCCC(C)C)cc2)nnn1Cc1ccc(F)cc1` showed a melting point of 114 °C.

`CNC(=O)c1cccc(NC(=O)c2nnn(Cc3ccc(Cl)c(Cl)c3)c2C)c1` [Example 18, 1-[(3,4-Dichlorophenyl)methyl]-5-methyl-N-{3-[(methylamino)carbonyl]phenyl}-1H-1,2,3-triazole-4-carboxamide] came in with a melting point of 203.9 °C.

Compound `Cc1c(C(=O)Nc2cccc(CO)c2)nnn1Cc1cccc(Cl)c1` [Example 86, 1-[(3-Chlorophenyl)methyl]-N-[3-(hydroxymethyl)phenyl]-5-methyl-1H-1,2,3-triazole-4-carboxamide] had a melting point of 151.9 °C.

`Cc1c(C(=O)Nc2cccc(C(C)(C)O)c2)nnn1Cc1ccc(Cl)c(Cl)c1` [Example 76, 1-[(3,4-Dichlorophenyl)methyl]-N-[3-(1-hydroxy-1-methylethyl)phenyl]-5-methyl-1H-1,2,3-triazole-4-carboxamide] gave a melting point of 58 °C.

In turn, `Cc1c(CNc2cc(CO)cc(CO)c2)nnn1Cc1ccc(Cl)c(Cl)c1` [Example 79, {5-[({1-[(3,4-Dichlorophenyl)methyl]-5-methyl-1H-1,2,3-triazol-4-yl}methyl)amino]benzene-1,3-diyl}dimethanol] came in with a melting point of 120 °C.

`Cc1c(C(=O)Nc2ccc(OCc3ccccc3)cc2)nnn1Cc1ccccc1` [Example 7, 5-Methyl-1-(phenylmethyl)-N-{4-[(phenylmethyl)oxy]phenyl}-1H-1,2,3-triazole-4-carboxamide] came in with a melting point of 125 °C.

`COC(=O)c1ccc(F)c(NC(=O)c2nnn(Cc3ccc(Cl)c(Cl)c3)c2C)c1` [Example 36, Methyl 3-[({1-[(3,4-dichlorophenyl)methyl]-5-methyl-1H-1,2,3-triazol-4-yl}carbonyl)amino]-4-fluorobenzoate]: the melting point turned out to be 195.7 °C.

As for `CCNC(=O)c1cccc(NC(=O)c2nnn(Cc3ccc(Cl)c(Cl)c3)c2C)c1` [Example 67, 1-[(3,4-Dichlorophenyl)methyl]-N-{3-[(ethylamino)carbonyl]phenyl}-5-methyl-1H-1,2,3-triazole-4-carboxamide], the melting point came to 192.2 °C.

Take `Cc1c(C(=O)Nc2ccc(CO)c(CO)c2)nnn1Cc1cccc(Cl)c1` [Example 82, N-[3,4-bis(Hydroxymethyl)phenyl]-1-[(3-chlorophenyl)methyl]-5-methyl-1H-1,2,3-triazole-4-carboxamide]: the melting point was determined as 157 °C.

With `CCOC(=O)c1ccc(NC(=O)c2nnn(Cc3ccc(Cl)c(Cl)c3)c2C)cc1` [Example 48, Ethyl 4-[({1-[(3,4-dichlorophenyl)methyl]-5-methyl-1H-1,2,3-triazol-4-yl}carbonyl)amino]benzoate], the melting point came to 167 °C.

With `Cc1c(C(=O)Nc2ccc(CO)cc2)nnn1Cc1ccc(F)cc1` [Example 90, 1-[(4-Fluorophenyl)methyl]-N-[4-(hydroxymethyl)phenyl]-5-methyl-1H-1,2,3-triazole-4-carboxamide], the melting point came to 145.6 °C.

For the compound `Cc1c(C(=O)Nc2ccc(CO)cc2)nnn1Cc1cccc(Cl)c1` [Example 88, 1-[(3-Chlorophenyl)methyl]-N-[4-(hydroxymethyl)phenyl]-5-methyl-1H-1,2,3-triazole-4-carboxamide], the melting point was determined as 136.2 °C.

Compound `CC(=O)Nc1cccc(NC(=O)c2nnn(Cc3ccc(Cl)c(Cl)c3)c2C)c1` [Example 21, N-[3-(Acetylamino)phenyl]-1-[(3,4-dichlorophenyl)methyl]-5-methyl-1H-1,2,3-triazole-4-carboxamide] returned a melting point of 203.4 °C.

Compound `Cc1c(C(=O)Nc2ccc(CCO)cc2)nnn1Cc1ccc(Cl)c(Cl)c1` [Example 50, 1-[(3,4-Dichlorophenyl)methyl]-N-[4-(2-hydroxyethyl)phenyl]-5-methyl-1H-1,2,3-triazole-4-carboxamide] had a melting point of 144 °C.

The compound `COC(=O)Cc1ccc(OC)c(NC(=O)c2nnn(Cc3ccc(Cl)c(Cl)c3)c2C)c1` [Example 35, Methyl [3-[({1-[(3,4-dichlorophenyl)methyl]-5-methyl-1H-1,2,3-triazol-4-yl}carbonyl)amino]-4-(methyloxy)phenyl]acetate] displayed a melting point of 133 °C.

The compound `Cc1c(C(=O)Nc2ccc(F)c(CO)c2)nnn1Cc1ccc(Cl)c(Cl)c1` [Example 53, 1-[(3,4-Dichlorophenyl)methyl]-N-[4-fluoro-3-(hydroxymethyl)phenyl]-5-methyl-1H-1,2,3-triazole-4-carboxamide] displayed a melting point of 189.7 °C.

`Cc1c(C(=O)Nc2cc(CO)ccc2F)nnn1Cc1ccc(Cl)c(Cl)c1` [Example 55, 1-[(3,4-Dichlorophenyl)methyl]-N-[2-fluoro-5-(hydroxymethyl)phenyl]-5-methyl-1H-1,2,3-triazole-4-carboxamide] had a melting point of 210.5 °C.

Turning to `Cc1c(C(=O)Nc2ccc(OCc3ccccc3)cc2)nnn1Cc1ccc(Br)cc1` [Example 3, 1-[(4-Bromophenyl)methyl]-5-methyl-N-{4-[(phenylmethyl)oxy]phenyl}-1H-1,2,3-triazole-4-carboxamide], the melting point was 168.7 °C.

For the compound `Cc1c(C(=O)Nc2ccc(OCCC(C)C)cc2)nnn1Cc1ccc(Br)cc1`, the melting point was 137 °C.
